Test results taken from PubChem BioAssay (NCI).
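How tested: cells in 96-well plates exposed to compound for 48 hours at five concentrations. The concentration for 50% growth inhibition is given as GI50. TGI marks complete inhibition of growth.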 Where a SMILES comes first, the peptide text is derived from it. Bridges are numbered along the chain shown (N, C = ends). Roman numbers before positions name the chains, in order. [ ]: non-standard residue; d: D form. The star is where a group is joined. Heptadecanoyl = CCCCCCCCCCCCCCCCC(=O)*; Phg = N[CH](C(=O)O)c1ccccc1

How the values were obtained:
Assay in all cases: NCI tumour cell line growth inhibition, 48 h
UACC-257 melanoma = tested on: UACC-257 melanoma
NCI/ADR-RES ovarian = tested on: NCI/ADR-RES ovarian
NCI-H460 lung = tested on: NCI-H460 lung
SN12C renal = tested on: SN12C renal
SK-MEL-5 melanoma = tested on: SK-MEL-5 melanoma
A549 NSCLC = tested on: A549 NSCLC
OVCAR-8 ovarian = tested on: OVCAR-8 ovarian
TK-10 renal = tested on: TK-10 renal
M14 melanoma = tested on: M14 melanoma
MDA-MB-231 breast = tested on: MDA-MB-231 breast

SMILES | TGI (UACC-257 melanoma) [µM] | TGI (NCI/ADR-RES ovarian) [µM] | TGI (NCI-H460 lung) [µM] | TGI (SN12C renal) [µM] | TGI (SK-MEL-5 melanoma) [µM] | TGI (A549 NSCLC) [µM] | TGI (OVCAR-8 ovarian) [µM] | GI50 (TK-10 renal) [µM] | TGI (TK-10 renal) [µM] | GI50 (UACC-257 melanoma) [µM] | GI50 (M14 melanoma) [µM] | TGI (M14 melanoma) [µM] | GI50 (NCI/ADR-RES ovarian) [µM] | GI50 (NCI-H460 lung) [µM] | GI50 (SN12C renal) [µM] | GI50 (MDA-MB-231 breast) [µM] | TGI (MDA-MB-231 breast) [µM] | GI50 (SK-MEL-5 melanoma) [µM] | GI50 (A549 NSCLC) [µM] | GI50 (OVCAR-8 ovarian) [µM]
CCOC(=O)c1cc(Cl)ccc1OC(N)=O | > 100 | > 100 | > 100 | > 100 | > 100 | > 100 | > 100 |  |  |  |  |  |  |  |  |  |  |  |  | 
CCCCCCCCCCCCCCCCC(=O)N1CCCC1C(=O)NCC(=O)NC(C(=O)N1CCCC1C(=O)NC(CO)C(=O)NC(Cc1ccc(O)cc1)C(=O)NC(CCCCNC(=O)C1CCCN1C(=O)C(CCCCN)NC(=O)C(CCCCN)NC(=O)C(CCCCN)NC(=O)C(CCCNC(=N)N)NC(=O)C(CCCCN)NC(=O)C(N)C(C)C)C(=O)NC(CC(C)C)C(=O)NC(CCCNC(=N)N)C(=O)N1CCCC1C(=O)NCC(N)=O)c1ccccc1 (configuration not stated) (I: Heptadecanoyl-PG[Phg]PSYKLRPG-NH2 / II: H-VKRKKKP; amide I:7-II:C; configuration not given here) | 62.9 | 84 | > 100 | 27.7 | > 100 | 53.3 | 84.6 | 26.5 | 66.6 | 12.2 | 25.3 | 99.7 | 26.2 | 23.2 | 12 | 17.7 | 36.1 | 31.3 | 23.9 | 28.2
Nc1nc(Cl)nc2c1ncn2C1CCC(CO)O1 (configuration not stated) | > 100 | > 100 | > 100 | > 100 | > 100 |  | > 100 |  | > 100 |  |  | > 100 |  |  |  |  |  |  |  | 
N#CC(C#N)=Cc1ccc(-c2ccc(-c3nc4ccccc4s3)cc2)s1 | > 100 | 22.7 | > 100 |  | 31.7 | > 100 | 72.2 | 22.7 | 47.4 | 65.3 | 29.3 | 96.2 | 5.74 | 26 |  | 16.1 | 36.9 | 11.8 | 13.8 | 23.1
C(=N/Nc1ccccn1)/c1cccnc1 | > 100 | > 100 | > 100 | > 100 | > 100 | > 100 | > 100 |  | > 100 |  |  | > 100 |  |  |  |  | > 100 |  |  | 
CN(C)C(=S)SCc1ccccc1 | > 100 | > 100 | > 100 | > 100 | > 100 | > 100 | > 100 |  | > 100 |  |  | > 100 |  |  |  |  | > 100 |  |  | 
C/C(=C\c1ccc2c(c1)OCO2)[N+](=O)[O-] | 5.54 | 37.9 | > 100 | 15.9 | 3.93 | > 100 | 5.79 |  | 8.63 |  |  | 42.5 |  |  |  |  | > 100 |  |  | 
Cc1cccc(C(O)c2ccccn2)c1O (configuration not stated) | > 100 | > 100 | > 100 | > 100 | > 100 | > 100 | > 100 |  | > 100 |  |  |  |  |  |  |  | > 100 |  |  | 
